Measurements: ChEMBL document CHEMBL1201862, “PubChem BioAssay data set” (2004)
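Grown in 96-well plates, cells were treated for 48 hours with each compound at five concentrations. Insufficient inhibition: endpoint recorded as highest concentration tested. GI50 is the concentration that inhibits growth by half.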 The source made the active and inactive calls. No stated cut-off is given here; in the data, active = GI50 up to about 1.1 µM and inactive = higher.

Experiments:
Assay in all cases: NCI anticancer screen, dose series, 48 h
SK-OV-3 = tested on: SK-OV-3
MOLT-4 = tested on: MOLT-4
SR = tested on: SR
CAKI-1 = tested on: CAKI-1
COLO 205 = tested on: COLO 205
T47D = tested on: T47D
SF-539 = tested on: SF-539
NCI-H460 = tested on: NCI-H460
SK-MEL-5 = tested on: SK-MEL-5
786-0 = tested on: 786-0
MDA-N = tested on: MDA-N
UACC-62 = tested on: UACC-62
M14 = tested on: M14
TK-10 = tested on: TK-10
HCT-15 = tested on: HCT-15
RXF 393 = tested on: RXF 393
KM12 = tested on: KM12
EKVX = tested on: EKVX
UACC-257 = tested on: UACC-257
SN12C = tested on: SN12C
SW-620 = tested on: SW-620
CCRF-CEM = tested on: CCRF-CEM
SK-MEL-2 = tested on: SK-MEL-2
HCT-116 = tested on: HCT-116
K562 = tested on: K562
BT-549 = tested on: BT-549
SF-268 = tested on: SF-268
NCI-H226 = tested on: NCI-H226
OVCAR-8 = tested on: OVCAR-8
SNB-19 = tested on: SNB-19
MDA-MB-435 = tested on: MDA-MB-435
HOP-92 = tested on: HOP-92
A498 = tested on: A498
HL-60 = tested on: HL-60
PC-3 = tested on: PC-3
SNB-75 = tested on: SNB-75
U-251 = tested on: U-251
SK-MEL-28 = tested on: SK-MEL-28
IGROV-1 = tested on: IGROV-1
Malme-3M = tested on: Malme-3M
A549 = tested on: A549
NCI/ADR-RES = tested on: NCI/ADR-RES
SF-295 = tested on: SF-295
DU-145 = tested on: DU-145
ACHN = tested on: ACHN
OVCAR-4 = tested on: OVCAR-4
UO-31 = tested on: UO-31
OVCAR-5 = tested on: OVCAR-5
RPMI-8226 = tested on: RPMI-8226
MDA-MB-231 = tested on: MDA-MB-231
OVCAR-3 = tested on: OVCAR-3
Hs-578T = tested on: Hs-578T
NCI-H23 = tested on: NCI-H23
MCF7 = tested on: MCF7
HOP-62 = tested on: HOP-62
HCC 2998 = tested on: HCC 2998
NCI-H522 = tested on: NCI-H522
HT-29 = tested on: HT-29
LOX IMVI = tested on: LOX IMVI

## O=c1[nH]c2cc3cccnc3c(Cl)c2nc1C(F)(F)F
SK-OV-3
  GI50: 57.3 µM (inactive)
MOLT-4
  GI50: 23.6 µM (inactive)
SR
  GI50: 28.2 µM (inactive)
CAKI-1
  GI50: 21.2 µM (inactive)
COLO 205
  GI50: 36.4 µM (inactive)
T47D
  GI50: 33.6 µM (inactive)
SF-539
  GI50: 40.6 µM (inactive)
NCI-H460
  GI50: 27.5 µM (inactive)
SK-MEL-5
  GI50: 14.5 µM (inactive)
786-0
  GI50: 72.4 µM (inactive)
MDA-N
  GI50: 37.2 µM (inactive)
UACC-62
  GI50: 22 µM (inactive)
M14
  GI50: 28.8 µM (inactive)
TK-10
  GI50: 68.9 µM (inactive)
HCT-15
  GI50: 44.5 µM
RXF 393
  GI50: 46.7 µM (inactive)
KM12
  GI50: 21 µM (inactive)
EKVX
  GI50: 9.91 µM (inactive)
UACC-257
  GI50: 27.1 µM (inactive)
SN12C
  GI50: 75.5 µM (inactive)
SW-620
  GI50: > 100 µM (inactive)
CCRF-CEM
  GI50: 28.1 µM (inactive)
SK-MEL-2
  GI50: 48.2 µM (inactive)
HCT-116
  GI50: 43.5 µM (inactive)
K562
  GI50: 29.7 µM (inactive)
BT-549
  GI50: 38.9 µM (inactive)
SF-268
  GI50: 60.7 µM (inactive)
NCI-H226
  GI50: 30.1 µM (inactive)
OVCAR-8
  GI50: 28.8 µM (inactive)
SNB-19
  GI50: 54.7 µM (inactive)
MDA-MB-435
  GI50: 33.7 µM (inactive)
HOP-92
  GI50: 7.16 µM (inactive)
A498
  GI50: 19.2 µM (inactive)
HL-60
  GI50: 32.9 µM (inactive)
PC-3
  GI50: 52 µM (inactive)
SNB-75
  GI50: 27.5 µM (inactive)
U-251
  GI50: 50.8 µM (inactive)
SK-MEL-28
  GI50: 62.8 µM (inactive)
IGROV-1
  GI50: 12.6 µM (inactive)
Malme-3M
  GI50: 77.8 µM (inactive)
A549
  GI50: 41.4 µM (inactive)
NCI/ADR-RES
  GI50: 33.3 µM (inactive)
SF-295
  GI50: 41 µM (inactive)
DU-145
  GI50: 54.8 µM (inactive)
ACHN
  GI50: 35.9 µM (inactive)
OVCAR-4
  GI50: 21.8 µM (inactive)
UO-31
  GI50: 27.7 µM (inactive)
OVCAR-5
  GI50: > 100 µM (inactive)
RPMI-8226
  GI50: 26.5 µM (inactive)
MDA-MB-231
  GI50: 30.3 µM (inactive)
OVCAR-3
  GI50: 34.4 µM (inactive)
Hs-578T
  GI50: 58.1 µM (inactive)
NCI-H23
  GI50: 25 µM (inactive)
MCF7
  GI50: 28.3 µM (inactive)
HOP-62
  GI50: 29.3 µM (inactive)
HCC 2998
  GI50: 42 µM (inactive)
NCI-H522
  GI50: 28.6 µM (inactive)
HT-29
  GI50: 51.3 µM (inactive)
LOX IMVI
  GI50: 32.4 µM (inactive)
